This is an account of results in patent US20180250309A1, “METHODS FOR TREATMENT OF MONOCYTE DYSFUNCTION AND CHRONIC INFLAMMATORY MICRO AND MACRO-VASCULAR DISEASES” (THE BOARD OF REGENTS OF THE UNIVERSITY OF TEXAS SYSTEM, priority 2015, published 2018).

A short description of data set [1]: Solubility / hydrophilicity relative to ursolic acid. It counts as physicochemical.
A further data set has as its system THP-1 monocytes. The data set can be described thus: Monocyte chemotaxis of metabolically primed THP-1 monocytes towards MCP-1 (modified Boyden chamber). It counts as cell-based, Human. Conditions: for monocyte chemotaxis: primed with glucose and LDL, 1 nM MCP-1, FIG. 2; for normal or baseline responses to chemokines: unprimed, non-pathogenic chemotaxis. The protocol: (§1) Chemotaxis assays are performed using 48-well, modified Boyden chambers (NeuroProbe, Gaithersburg, Md.) as described previously (1). Briefly, monocytes are primed with glucose and LDL in the presence of UA, 23-OHUA or vehicle (0.1% DMSO). Cells are loaded into upper wells of the chemotaxis chamber. Lower wells contain cell media with 1 nM MCP-1 (R&D Systems, Minneapolic, Minn.) or vehicle. A 5 μm polyvinyl pyrrolidone-free polycarbonate filter membrane is layered between the upper and lower chambers, and the chamber is incubated for 1.5 h for THP-1 monocytes at 37° C. and 5% CO2. The membrane is washed and cells removed from the upper side of the filter and fixed with methanol. Transmigrated are stained with 1 μM propidium iodide. Fluorescence intensity, which correlates with cell number is quantified with KODAK Image Station 4000MM (Carestream, Rochester, N.Y.).
Cell Culture/Priming. Human monocytic THP-1 cells (ATCC) were cultured in THP-1 medium (RPMI 1640, 5 mM glucose, 10% fetal bovine serum (FBS), 2% glutamax, 1% penicillin/streptomycin, 1% HEPES, 0.1% β-mercaptoethanol). Cells are spun down at 400 g, 5 minutes at 25° C. and resuspended in media at […]. Following 48 hours at 37° C. and 5% CO2, cells are plated in 12-well cell culture plates. Phytochemicals are solubilized in dimethylsulfoxide (DMSO) and are added to suspended THP-1 cells at concentrations from 0.03 μM to 3 μM. Control cells without phytonutrients are treated with 0.1% DMSO. Cytotoxicity was assessed with a trypan exclusion assay. To induce a metabolically stressed condition (priming), cells were treated with freshly isolated human LDL is added (100 μg/ml) along with D-glucose (20 mM) for 24 hours.
as §1, with “Chemotaxis. Chemotaxis” for “Chemotaxis”, “(Ullevig et al. Redox Biology. 2014 01/03;2:259-66).” for “(1).”, “islayered” for “is layered”

The test system of the next data set is Nox4. In words: Induction of Nox4 in monocytes under metabolic stress. The class given is cell-based. The text has this:
The inventor has elucidated the mechanism through which hypercholesterolemia and hyperglycemia promote monocyte dysfunction. Monocyte dysfunction is induced by metabolic disorders via the pathological induction of Nox4.

For the next data set, the system named is diabetic atherosclerosis. The data set can be described thus: Dietary supplementation in diabetic mice: monocyte dysfunction, macrophage recruitment, atherosclerosis. It counts as in vivo.

Like-named read-outs stand apart in the source and are kept apart here.

`CC1CCC2(C(=O)O)CCC3(C)C(=CCC4C5(C)CCC(O)C(C)(CO)C5CCC43C)C2C1C` (stereo not drawn) [23-OH UA, 3β, 23-dihydroxyurs-12-en-28oic acid]: in data set [1], the “hydrophilicity relative to UA” value was “more hydrophilic” and the “solubility compared with ursolic acid” value is listed as “more soluble”. Further, in the data set with THP-1 monocytes, the “monocyte priming by metabolic stress (hypersensitization to chemokine-induced activation)” value is on record as “inhibit”, the monocyte chemotaxis entry is recorded as “reducing monocyte chemotaxis” and the “normal or baseline responses to chemokines” value is on record as “do not block or affect normal or baseline responses to chemokines”. In the data set on Nox4, the “induction of Nox4” value is “prevents the induction of Nox4” and the monocyte dysfunction result was “prevents”.
Regarding `C[C@H]1[C@H](C)CC[C@]2(C(=O)O)CC[C@]3(C)C(=CC[C@@H]4[C@@]5(C)CC[C@H](O)C(C)(C)[C@@H]5CC[C@]43C)[C@H]12` [UA, Ursolic acid], in the data set on diabetic atherosclerosis, the atherosclerosis entry is on record as “potent inhibitor of diabetic atherosclerosis”; the “monocyte dysfunction and macrophage recruitment” value is “attenuates monocyte dysfunction and macrophage recruitment”. Moreover, the atherosclerosis entry in the data set with diabetic atherosclerosis (listed as ursolic acid) is given as “protects diabetic mice from atherosclerosis”. Also, in the data set on THP-1 monocytes, the “monocyte priming by metabolic stress (hypersensitization to chemokine-induced activation)” value was “inhibit”, the monocyte chemotaxis entry was “reducing monocyte chemotaxis” and the “normal or baseline responses to chemokines” value is on record as “do not block or affect normal or baseline responses to chemokines”. In the data set on Nox4, the “induction of Nox4” value is given as “prevent the induction of Nox4”.
